The values that follow come from ChEMBL document CHEMBL5727593, “Use of physiological cooling active ingredients, and agents containing such active ingredients” (2020).

For this assay, the target named is Transient receptor potential cation channel subfamily M member 8 (Homo sapiens, UniProt Q7Z2W7). The experiment in a line: The agonisation or antagonisation of the receptor can be quantified by means of a Ca2+-sensitive dye (e.g. FURA, Fluo-4, etc.). Agonists on their own bring about an increase in the Ca2+-signal; antagonists in the presence of, for example, menthol bring about a reduction in the Ca2+-signal (in each case detected by means of the Fluo-4 dye, which due to the Ca2+ has other fluorescent properties).To begin with, in a manner known per se, in cell culture flasks a fresh culture of transformed HEK cells is prepared. The HEK293-TRPM8 test cells are removed using trypsin from the cell culture flasks and 40 000 cells/well are sown with 100 μl medium in 96-well plates (Greiner #655948 Poly-D-lysine coated). In order to induce the TRPM8 receptor the growth medium tetracycline is mixed in (DMEM/HG, 10% FCS tetracycline-free, 4 mM L-glutamine, 15 μg/ml blasticidin, 100 μg/ml hygromycin B, 1 μg/ml tetracycline). The next day the cells are charged with Fluo-4Am dye and the test is performed. The procedure is as follows: Addition of 100 μl/well of dye solution Ca-4 Kit (RB 141, Molecular Devices) per 100 μl of medium (DMEM/HG, 10% FCS tetracycline-free, 4 mM L-glutamine, 15 μg/ml blasticidin, 100 μg/ml hygromycin B, 1 μg/ml tetracycline). Incubation in the incubator for 30 minutes/37° C./5% CO2, 30 minutes/RT. […].
Sequence of Transient receptor potential cation channel subfamily M member 8 (Q7Z2W7 whole entry): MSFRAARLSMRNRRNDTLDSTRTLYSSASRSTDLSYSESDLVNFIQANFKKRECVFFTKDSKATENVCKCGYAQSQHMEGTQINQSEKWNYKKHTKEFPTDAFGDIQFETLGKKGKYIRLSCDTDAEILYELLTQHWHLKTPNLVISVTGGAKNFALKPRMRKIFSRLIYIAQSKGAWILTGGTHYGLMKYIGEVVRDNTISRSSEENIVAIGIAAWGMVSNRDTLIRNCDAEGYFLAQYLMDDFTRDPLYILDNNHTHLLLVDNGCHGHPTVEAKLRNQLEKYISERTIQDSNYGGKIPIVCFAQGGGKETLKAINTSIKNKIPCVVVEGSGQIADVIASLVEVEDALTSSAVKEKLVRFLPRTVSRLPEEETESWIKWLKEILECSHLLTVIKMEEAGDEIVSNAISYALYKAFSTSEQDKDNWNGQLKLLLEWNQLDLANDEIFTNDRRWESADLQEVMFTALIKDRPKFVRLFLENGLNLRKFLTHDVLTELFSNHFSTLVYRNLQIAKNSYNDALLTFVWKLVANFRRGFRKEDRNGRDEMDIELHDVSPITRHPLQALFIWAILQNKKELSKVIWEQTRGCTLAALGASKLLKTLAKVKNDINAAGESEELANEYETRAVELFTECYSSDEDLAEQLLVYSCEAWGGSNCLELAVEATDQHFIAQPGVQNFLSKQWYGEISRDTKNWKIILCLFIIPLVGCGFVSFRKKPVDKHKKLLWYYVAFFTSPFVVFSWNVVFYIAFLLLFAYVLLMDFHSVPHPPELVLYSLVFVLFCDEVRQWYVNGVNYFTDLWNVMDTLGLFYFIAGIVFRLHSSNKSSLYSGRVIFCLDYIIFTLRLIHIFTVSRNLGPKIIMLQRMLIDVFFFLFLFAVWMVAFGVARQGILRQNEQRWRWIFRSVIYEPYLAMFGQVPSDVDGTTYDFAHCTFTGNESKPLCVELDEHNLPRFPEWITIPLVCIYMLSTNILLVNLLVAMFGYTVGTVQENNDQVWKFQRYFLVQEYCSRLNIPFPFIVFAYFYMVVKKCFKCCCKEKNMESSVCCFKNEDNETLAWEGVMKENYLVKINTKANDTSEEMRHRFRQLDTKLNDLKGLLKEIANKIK

pEC50: −log10 of the molar value.

What is called pEC50 is −log10 of the EC50, conventionally taken in molar units. As to `COc1cnc(-c2ccccn2)nc1NC(C)C(C)C` (configuration not stated), the negative logarithm of the EC50 (pEC50) is 6.30.

Take `COc1cnc(-c2ccccn2)nc1OC(C)C`: the pEC50 is 5.49.
